In patent publication US9549911B2, “Ginger metabolites and uses thereof” (North Carolina A&T State University, priority 2012, dated 2017):
Read-outs that look alike come from different tables or passages of the source.

Legend:
[1] = test system: human colon cancer cells HCT-116; test: MTT growth inhibition of human cancer and normal cells (Part 2); type: cell-based; conditions: for activity against cancer cells (MTT): HCT-116, 0 to 80 μM; for IC50: HCT-116, 48 h, 0 to 80 μM
Procedure: (§1) Growth inhibition of human cancer and normal cells. Cell growth inhibition was determined by a MTT colorimetric assay. Human colon cancer cells HCT-116, human lung cancer cells H-1299, human colon fibroblast cells CCD-18Co, and human lung fibroblast cells IMR-90 were plated in 96-well microtiter plates with 3000 cells/well and allowed to attach for 24 h at 37° C. […] After the cells were cultured for 48 h, the medium was aspirated and cells were treated with 200 μL fresh medium containing 2.41 mmol/L MTT. […] The reading reflected the number of viable cells and was expressed as a percentage of viable cells in the control. Both HCT-116 and H-1299 cells were cultured in McCoy's 5A medium. CCD-18Co and IMR-90 cells were cultured in Eagle's modified essential medium (EMEM). All of the above media were supplemented with 10% fetal bovine serum, 1% penicillin/streptomycin, and 1% glutamine, and the cells were kept in a 37° C. incubator with 95% humidity and 5% CO2.

[2] = test system: human lung cancer cells H-1299; test: as above; type: cell-based; conditions: for activity against cancer cells (MTT): H-1299, 0 to 80 μM; for IC50: H-1299, 48 h, 0 to 80 μM
Procedure: as §1

H-1299 cells [3] = test: TUNEL apoptosis assay (Part 2); type: cell-based, human; conditions: H-1299, 20 or 40 μM, 24 hours
Procedure: (§2) HCT-116 and H1299 cells were seeded in 6-well plates at 1×10^5 cells/well and incubated at 37° C. in 5% CO2 incubator. After 24 hours, fresh media supplemented with DMSO (control), [6]-shogaol, M2, M6, or M13 metabolites (20 μM or 40 μM) were added to the wells. After 6 or 24 hours incubation at 37° C. in 5% CO2 incubator, cells were washed and pre-treated for 15 min at room temperature with a solution of 20 μg/ml proteinase K. Cells were then washed twice with phosphate buffer saline pH 7.4 (PBS) and fixed for 10 min at room temperature using 10% neutral formaldehyde solution. After 2 washes in ddH2O, cells were resuspended in 100 μL ddH2O and applied on silanized microscope slides. Slides were incubated overnight at 37° C., and washed twice with PBS. TUNEL assay was then carried out according to the manufacturer's protocol. Cells were observed under 400× power using a Zeiss microscope A1 (Thornwood, N.Y.). 10 fields per slide were evaluated, and TUNEL+ cells (with brown coloration in the nucleus) were expressed as a percentage of the total number of cells contained in a field.

HCT-116 cells [4] = test: TUNEL apoptosis assay (Part 2); type: cell-based, human; conditions: HCT-116, 20 or 40 μM
Procedure: as §2

[5] = test system: human colon fibroblast cells CCD-18Co; test: in vitro; type: cell-based
Procedure: as §1

[6] = test system: human lung fibroblast cells IMR-90; test: in vitro; type: cell-based
Procedure: as §1

in vitro [7] = type: cell-based, human; conditions: human; normal colon cells CCD-18Co, 48 h; read-out: IC50 (cytotoxicity, MTT)
Procedure: as §1

in vitro [8] = type: cell-based, human; conditions: human; normal lung cells IMR-90, 48 h; read-out: IC50 (cytotoxicity, MTT)
Procedure: as §1

HCT-116 cells [9] = test: Western blot analysis of apoptosis markers and p53 (Part 5); type: cell-based, human; conditions: HCT-116 (p53 wild-type), 24 hours; M2, 6S 10, 20 or 40 μM; 8S, M2′, 10S, M2″ 20 μM
Procedure: (§3) Cell lysates were prepared in ice-cold RIPA lysis buffer [25 mM Tris-HCl (pH 7.6), 150 mM NaCl, 1% NP-40, 1% sodium deoxycholate, 0.1% SDS, Thermo Fisher Scientific] supplemented with a protease inhibitor cocktail (AEBSF, aprotinin, bestatin, E-64, leupeptin and pepstatin A in DMSO with EDTA, Thermo Fisher Scientific). Protein content was measured by a Pierce BCA Assay Kit (Thermo Fisher Scientific). Protein contents of cell lysates (30 μg protein/lane) were resolved by SDS-PAGE. Proteins were then electro-transferred onto PVDF membranes and blots were blocked for one hour at room temperature in 1×TBS with 1% Casein (Bio-Rad Laboratories, Berkeley, Calif.). Blots were then incubated overnight at 4° C. with the desired primary antibody diluted in TBS with 0.5% Tween-20. Blots were then washed with TBS-Tween 20 and probed for 1 hour with the appropriate secondary antibody (1:1000). Protein bands were visualized with chemiluminescence using West Femto maximum detection substrate (Thermo Fisher Scientific). To confirm equal protein loading in each lane, immunoblots were stripped and re-probed for β-actin. Protein fold-induction was calculated by normalizing the intensity of the band of interest to β-actin first, and then to DMSO control lanes.

HT-29 cells = test: as above; type: cell-based, human; conditions: HT-29 (p53 mutant), 24 hours; M2, 6S 10, 20 or 40 μM; 8S, M2′, 10S, M2″ 20 μM
Procedure: as §3

[10] = test system: human colon cancer cells HCT-116; test: MTT toxicity in colon cancer and normal colon cells (Part 5); type: cell-based; conditions: HCT-116, 24 hours
Procedure: (§4) Cell viability was determined by an MTT colorimetric assay. […] The reading reflected the number of viable cells and was expressed as a percentage of viable cells in the control. CCD-18Co cells were grown in EMEM. Both HCT-116 and HT-29 cells were cultured in McCoy's 5A medium. All of the above media were supplemented with 10% fetal bovine serum, 1% penicillin/streptomycin, and 1% glutamine, and the cells were kept in a 37° C. incubator with 95% humidity and 5% CO2.

[11] = test system: human colon cancer cells HT-29; test: as above; type: cell-based; conditions: HT-29 (p53 mutant), 24 hours
Procedure: as §4

[12] = Chemical inhibition of [6]-shogaol metabolism in liver microsomes; type: in vitro ADME, human; conditions: inhibitor 500 μM, 20 min pre-incubation, [6]-shogaol 50 μM, 30 min
Procedure: Inhibitors ABT (500 μM) and 18β-GA (500 μM) or DMSO controls were pre-incubated with microsomes in experimental incubation mixture at 37° C. for 20 minutes before initiating the reaction by the addition of [6]-shogaol (50 μM). Reactions were terminated 30 minutes after substrate addition and incubation in a 37° C. water bath by equal volume of ice-cold acetonitrile with 2% acetic acid. The mixture was vortexed and underwent centrifugation at 13,000 g for 10 minutes. Aliquots of supernatant were stored at −20° C. until analysis.

[13] = test system: HCT-116 human colon cancer cells; test: MTT growth inhibition of human cancer cells, 24 h (Part 1); type: cell-based; conditions: Homo sapiens; HCT-116, 24 h, 0 to 80 μM
Procedure: (§5) The reading reflected the number of viable cells and was expressed as a percentage of viable cells in the control. Both HCT-116 and H-1299 cells were cultured in McCoy's 5A medium. All of the above media were supplemented with 10% fetal bovine serum, 1% penicillin/streptomycin, and 1% glutamine, and the cells were kept in a 37° C. incubator with 95% humidity and 5% CO2.

[14] = test system: H-1299 human lung cancer cells; test: as above; type: cell-based; conditions: Homo sapiens, NCI-H1299; H-1299, 24 h, 0 to 80 μM
Procedure: as §5

H-1299 cells [15] = test: TUNEL apoptosis assay (Part 1); type: cell-based, human; conditions: 24 h
Procedure: (§6) HCT-116 and H-1299 cells were seeded in six-well plates at 1.0×10^5 cells/well and were incubated at 37° C. in a 5% CO2 incubator. After 24 h, fresh media supplemented with DMSO (control), [6]-shogaol (10 or 20 μM), M9 (40 or 80 μM), or M11 (40 or 80 μM) were added to the wells. After 24-h incubation, cells were washed and pretreated for 15 min at room temperature with a solution of 20 μg/ml proteinase K. Cells were then washed twice with PBS pH 7.4 and were fixed for 10 min at room temperature using 10% neutral formaldehyde solution. After two washes in distilled H2O, cells were resuspended in 100 μl of distilled H2O and were applied on silanized microscope slides. Slides were incubated overnight at 37° C. and were washed twice with PBS. Terminal deoxynucleotidyl transferase deoxyuridine triphosphate nick-end labeling (TUNEL) assay was then performed according to the manufacturer's protocol. Cells were observed under 400× power using a Zeiss A1 microscope (Carl Zeiss, Inc., Thornwood, N.Y.).
(§7) Ten fields per slide were evaluated, and TUNEL-positive cells (with brown coloration in the nucleus) were expressed as a percentage of the total number of cells contained in a field. Statistical Analysis. For simple comparisons between two groups, twotailed Student's t test was used. A p value of less than 0.05 was considered statistically significant in all the tests.

HCT-116 cells [16] = test: TUNEL apoptosis assay (Part 1); type: cell-based, human; conditions: 24 h
Procedure: as §6, §7

## CCCCCC(CC(O)CCc1ccc(O)c(OC)c1)SCC(N)C(=O)O (centres unmarked) [M1, 5-cysteinyl-M6]
[1]
  activity against cancer cells (MTT): little to no activity
[2]
  activity against cancer cells (MTT): little to no activity

## CCCCCC(CC(=O)CCc1ccc(O)c(OC)c1)SC[C@H](NC(=O)CC[C@H](N)C(=O)O)C(=O)NCC(=O)O (some centres unmarked) [M13, 5-glutathiol-[6]-shogaol]
[1]
  IC50: 45.5 µM
[2]
  IC50: 47.8 µM
H-1299 cells [3]
  induction of apoptosis (TUNEL) versus DMSO: Apoptosis was observed
HCT-116 cells [4]; 6 hours
  induction of apoptosis (TUNEL) versus DMSO: higher levels of apoptosis
HCT-116 cells [4]; 24 hours
  induction of apoptosis (TUNEL) versus DMSO: Apoptosis was observed
[5]
  IC50: 75.5 µM
[6]
  IC50: 57.5 µM

## CCCCCC(CC(O)CCc1ccc(O)c(OC)c1)SCC(NC(C)=O)C(=O)O (centres unmarked) [M4, 5-N-acetylcysteinyl-M6]
[1]
  activity against cancer cells (MTT): little to no activity
[2]
  activity against cancer cells (MTT): little to no activity

## CCCCCCCC(=O)CCc1ccc(O)c(O)c1 [M8, 1-(3′,4′-dihydroxyphenyl)-decan-3-one]
[1]; Homo sapiens
  IC50: 58.8 µM
In vitro [7]
  IC50 at 48 h: > 100 µM
In vitro [8]
  IC50 at 48 h: > 100 µM

## CCCCCCCCCC(CC(=O)CCc1ccc(O)c(OC)c1)SC[C@H](N)C(=O)O (some centres unmarked) [M2″, 5-cysteinyl-[10]-shogaol]
HCT-116 cells [9]
  p53 expression (Western blot): increase in p53 accumulation
HT-29 cells
  p53 expression (Western blot): increase in p53 accumulation
[10]
  IC50: 13.3 µM
[11]
  IC50: 28.8 µM

## CCCCCC(CC(O)CCc1ccc(O)c(OC)c1)SC (centres unmarked) [M12, 5-methylthio-1-(4′-Hydroxy-3′-methoxyphenyl)-decan-3-ol]
[2]; Homo sapiens, NCI-H1299
  IC50: 69.9 µM
In vitro [7]
  IC50 at 48 h: > 100 µM
In vitro [8]
  IC50 at 48 h: > 100 µM

## CCCCCCCC(CC(=O)CCc1ccc(O)c(OC)c1)SC[C@H](N)C(=O)O (some centres unmarked) [M2′, 5-cysteinyl-[8]-shogaol]
HCT-116 cells [9]
  p53 expression (Western blot): increase in p53 accumulation
HT-29 cells
  p53 expression (Western blot): increase in p53 accumulation
[10]
  IC50: 15.2 µM
[11]
  IC50: 31.2 µM

## CCCCCC(CC(=O)CCc1ccc(O)c(OC)c1)SC (centres unmarked) [M10, 5-methylthio-1-(4′-hydroxy-3′-methoxyphenyl)-decan-3-one]
[1]; Homo sapiens
  IC50: 78.2 µM
[2]; Homo sapiens, NCI-H1299
  IC50: 60.6 µM
In vitro [7]
  IC50 at 48 h: > 100 µM
In vitro [8]
  IC50 at 48 h: > 100 µM

## CC1(C)[C@@H](O)CC[C@]2(C)[C@H]3C(=O)C=C4[C@@H]5C[C@@](C)(C(=O)O)CC[C@]5(C)CC[C@@]4(C)[C@]3(C)CC[C@@H]12 [18β-glycyrrhetinic acid]
[12]
  effect on reductive metabolism of [6]-shogaol: decimated the reductive metabolism

## Nn1nnc2ccccc21 [ABT, 1-Aminobenzotriazole]
[12]
  effect on oxidative metabolism of [6]-shogaol: abrogated
  effect on reductive metabolism of [6]-shogaol: did not inhibit reductive metabolism

## CCCCCC(CC(=O)CCc1ccc(O)c(OC)c1)SC[C@H](NC(C)=O)C(=O)O (some centres unmarked) [M5, 5-N-acetylcysteinyl-[6]-shogaol]
[1]
  IC50: 54.3 µM
[2]
  IC50: 72.6 µM
[5]
  IC50: > 100 µM
[6]
  IC50: > 100 µM

## CCCCCCCC(=O)CCc1ccc(O)c(OC)c1 [M11, 1-(4′-hydroxy-3′-methoxyphenyl)-decan-3-one]
[13]
  IC50: 84 µM
[14]
  IC50: 66.5 µM
[1]; Homo sapiens
  IC50: 84 µM
[2]; Homo sapiens, NCI-H1299
  IC50: 66.5 µM
In vitro [7]
  IC50 at 48 h: > 100 µM
In vitro [8]
  IC50 at 48 h: > 100 µM
H-1299 cells [15]; H-1299, 40 μM
  apoptotic cells (TUNEL): 8.3%
H-1299 cells [15]; H-1299, 80 μM
  apoptotic cells (TUNEL): 19.4%
HCT-116 cells [16]; HCT-116, 40 μM
  apoptotic cells (TUNEL): 12.9%
HCT-116 cells [16]; HCT-116, 80 μM
  apoptotic cells (TUNEL): 21.1%

## CCCCCCCC(O)CCc1ccc(O)c(OC)c1 (centres unmarked) [M9, 1-(4′-hydroxy-3′-methoxyphenyl)-decan-3-ol]
[13]
  IC50: 82.2 µM
[14]
  IC50: 77.7 µM
[1]; Homo sapiens
  IC50: 82.2 µM
[2]; Homo sapiens, NCI-H1299
  IC50: 82.5 µM
In vitro [7]
  IC50 at 48 h: > 100 µM
In vitro [8]
  IC50 at 48 h: > 100 µM
H-1299 cells [15]; H-1299, 40 μM
  apoptotic cells (TUNEL): 7.4%
H-1299 cells [15]; H-1299, 80 μM
  apoptotic cells (TUNEL): 15.4%
HCT-116 cells [16]; HCT-116, 40 μM
  apoptotic cells (TUNEL): 9.6%
HCT-116 cells [16]; HCT-116, 80 μM
  apoptotic cells (TUNEL): 16.9%
